Measured values as given in patent US20070248702A1, “Use of CB2 receptors agonists for the treatment of Huntington's disease” (priority 2004, published 2007).

Experiments:
[1] = test system: rats with unilateral lesions of the caudate-putamen generated by local application of malonate; conditions: Lastres-Becker et al., Neuroreport 14: 813-6, 2003; effects not dose-dependent; cited from earlier work
[2] = test system: rats with unilateral injections of malonate; test: GABA contents in basal ganglia by HPLC, malonate rat model of Huntington's disease; type: in vivo; conditions: for GABA contents Globus pallidus / GABA contents Substantia nigra: % of lesioned side over non-lesioned side, mean ± SEM, i.p. 30 min before and 2 h after malonate (ACEA 3 mg/kg, HU-308 5 mg/kg, CBD 5 mg/kg), 48 h; for malonate-induced GABA loss in the striatum (caudate-putamen): FIG. 1, result in words, HU-308 5 mg/kg; for malonate-induced GABA loss in the striatum (caudate-putamen) / neurochemical deficits induced by malonate in the caudate-putamen and other basal ganglia structures: CBD 5 mg/kg i.p.; for neurochemical deficits induced by malonate in the caudate-putamen and other basal ganglia structures: Table 1 and FIG. 1, result in words, ACEA 3 mg/kg
Method: (§1) Animals. Male Sprague-Dawley rats were housed in a room with controlled photoperiod (08:00-20:00 light) and temperature (23±1° C.). […] Each treatment group consisted of at least six animals.
(§2) Intrastriatal injection of malonate. Rats were injected stereotaxically (coordinates: +0.8 mm anterior, 2.9 mm lateral from the bregma, 4.5 mm ventral from the dura mater) into the left striatum with 2 M malonate in a volume of 1 μl and used for experimental analysis 48 h later.
(§3) Cannabinoid treatment. […] All compounds were prepared in Tween 80-saline solution (1:16 volume per volume). The volume dosage for i.p. administration was 2 ml/kg body weight. The doses used for each experiment were selected from the previous studies on the pharmacological properties of these compounds.
(§4) Animals were killed 46 hours after the second cannabinoid injection and their brains were rapidly removed and frozen in 2-methylbutane cooled in dry ice, and stored until evaluation of the degree of malonate-induced striatal injury.
(§5) Sample preparation. Brains coronal slices (around 500 μm thick) were made at levels containing the substantia nigra, the globus pallidus and the caudate-putamen, according to Palkovits M. and Brownstein J. (Maps and Guide to Microdissection of the Rat Brain. Elsevier, 1988). Subsequently, the three structures were dissected and homogenized in 20-40 volumes of cold 150 mM potassium phosphate buffer, pH 6.8. Each homogenate was distributed for the analysis of the contents of GABA or dopainine and its major metabolite, 3,4-dihydroxyphenylacetic acid (DOPAC), by High Performance Liquid Chromatography (HPLC) coupled to electrochemical detection, according to previously described methods (Romero J. et al., Brain Res. 694: 223-32, 1995; González S. et al., Life Sci. 65: 327-36, 1999). An aliquot of each homogenate was used to analyze protein concentration (Lowry O. H. et al., J. Biol. Chem. 193: 265-75, 1951).
Analysis of GABA contents. This analysis was carried out by HPLC with electrochemical detection according to the procedure described by Smith S, and Sharp T. (J. Chromat. 652: 228-33, 1994). The aliquot of the homogenate used for the direct measurement of GABA content was diluted 1:2 with 0.4 N perchloric acid containing 0.4 mM sodium disulfite, 0.90 mM EDTA and 10 μg/ml β-aminobutyrate (BABA) as an internal standard. Following, samples were centrifuged for 3 min (15,000 g) and 50 μl of each supernatant removed and neutralized with 100 μl of 0.1 N NaOH. Samples were stored at 4° C. until analysis. This was performed by derivatization of GABA and BABA (β-aminobutyrate) through the addition of 15 μl of o-phthaldehyde (OPA)-sulfite solution (14.9 mM OPA, 45.4 mM sodium sulfite and 4.5% ethanol in 327 mM borate buffer, pH 10.4). Samples were allowed to react at room temperature for a period of 10 min. After this time, 20 μl of each reaction mixture (including derivatizated calibration standards composed of known concentrations of GABA and BABA) were injected into the HPLC system. The HPLC system consisted of the following elements. The pump was an isocratic Spectra-Physics 8810. The column was a RP-18 (Spherisorb ODS-2; 150 mm, 4.6 mm, 5 μm particle size; Waters, Mass., USA). The mobile phase, previously filtered and degassed, consisted of 0.06 M sodium dihydrogen phosphate, 0.06 mM EDTA and 20-30% methanol (pH 4.4) and the flow rate was 0.8 ml/min. The effluent was monitored with a Metrohm bioanalytical system amperometric detector using a glassy carbon electrode. The potential was 0.85V relative to an Ag/AgCl reference electrode with a sensitivity of 50 nA (approx. 2 ng per sample). The signal was recorded on a Spectra-Physics 4290 integrator. The approximate retention times for GABA and BABA were 8 and 16 min, respectively. […] Values were expressed as μg/mg of protein.

[3] = test system: rats with unilateral injections of malonate; test: dopamine and DOPAC contents in caudate-putamen by HPLC, malonate rat model; type: in vivo; conditions: % of lesioned side over non-lesioned side, mean ± SEM; i.p. 30 min before and 2 h after malonate (ACEA 3 mg/kg, HU-308 5 mg/kg, CBD 5 mg/kg); 48 h
Method: as §1, §2, §3, §4, §5

[4] = test system: rats with unilateral injections of malonate; test: in situ hybridization of neuronal-specific enolase mRNA, malonate rat model; type: in vivo; conditions: FIG. 2, result in words; HU-308 5 mg/kg, CBD 5 mg/kg i.p.
Method: Animals were killed 46 hours after the second cannabinoid injection and their brains were rapidly removed and frozen in 2-methylbutane cooled in dry ice, and stored until evaluation of the degree of malonate-induced striatal injury. The protocol and results concerning the neurochemical evaluation of the neuronal injury and the effect of the various types of cannabinoids are reported in Example 2. The protocol and results concerning the effect of the various types of cannabinoids on the mRNA levels of neuron specific enolase are reported in Example 3.
(§6) Brain slicing. Coronal sections, 40 μm-thick, were cut in a cryostat, according to the Paxinos G. and Watson C. atlas (Rat brain in stereotaxic coordinates. Academic Press, London, 1986). Sections were thaw-mounted onto Superfrost Plus glass slides and dried briefly at 30° C. and stored at −80° C. until used.
(§7) Analysis of mRNA levels of NSE. Briefly, sections were fixed in 4% paraformaldehyde for 5 min and, after rinsing twice in PBS, were acetylated by incubation in 0.25% acetic anhydride, prepared in 0.1 M triethanolamine/0.15 M sodium chloride (pH 8.0), for 10 min. […]
(§8) The oligonucleotide probe was labeled at the 3′-end with [^35S]-dATP using terminal deoxynucleotidyl-transferase. […] The intensity of the hybridization signal was assessed by measuring the grey levels in the films with a computer-assisted video densitometer. […]

[5] = test system: rats with unilateral injections of malonate; test: in situ hybridization of SOD-1 and SOD-2 mRNA, malonate rat model; type: in vivo; conditions: result in words, HU-308 5 mg/kg i.p.
Method: The protocol and results concerning possible sites of action are reported in Example 6.
as §6
as §7, with “min. Sections were rinsed in 0.3 M sodium chloride/0.03 M sodium citrate, pH 7.0, dehydrated and delipidated by ethanol/chloroform series. For hybridization, the following synthetic probe of 45 nucleotides was used.” for “min.”
as §8
Superoxide dismutase-1 and -2 (SOD-1 and SOD-2) were used as markers of endogenous antioxidant defenses. Their relative levels in lesioned vs. non-lesioned areas of malonate injected rats were measured by in situ hybridization. […]

human CB1 receptors = human CB1 receptors (Homo sapiens, UniProt P21554); conditions: read-out: IC50 human CB1 receptors; as disclosed in WO 03/064359; cited from earlier work
[6] = test system: mice treated with the neurotoxin MPTP; conditions: WO 03/064359; cited from earlier work
[7] = test system: rats systemically exposed to 3-nitropropionic acid; conditions: Lastres-Becker et al., Neuroreport 15: 2375-9, 2004; cited from earlier work

Chain of human CB1 receptors (P21554 whole entry): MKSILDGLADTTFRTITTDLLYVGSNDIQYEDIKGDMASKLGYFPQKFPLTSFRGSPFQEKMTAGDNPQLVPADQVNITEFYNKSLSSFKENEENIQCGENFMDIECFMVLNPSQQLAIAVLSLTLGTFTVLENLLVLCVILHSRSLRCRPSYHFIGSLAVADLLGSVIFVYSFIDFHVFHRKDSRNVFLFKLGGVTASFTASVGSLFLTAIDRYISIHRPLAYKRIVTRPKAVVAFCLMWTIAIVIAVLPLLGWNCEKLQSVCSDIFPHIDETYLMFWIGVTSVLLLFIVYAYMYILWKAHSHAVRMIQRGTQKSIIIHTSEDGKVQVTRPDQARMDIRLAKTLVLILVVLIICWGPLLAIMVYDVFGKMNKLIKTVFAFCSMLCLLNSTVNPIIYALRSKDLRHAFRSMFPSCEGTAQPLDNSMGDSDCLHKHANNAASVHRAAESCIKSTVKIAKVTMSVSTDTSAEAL

Cc1c(C(=O)NN2CCCCC2)nn(-c2ccc(Cl)cc2Cl)c1-c1ccc(Cl)cc1 [SR141716]
effect on malonate toxicity [1]: enhanced malonate toxicity

CCCCCCC(C)(C)c1cc(OC)c(C2C=C(CO)C3CC2C3(C)C)c(OC)c1 (single isomer, unassigned; (+)) [HU-308, (+){4-[4-(1,1-dimethylheptyl)-2,6-dimethoxyphenyl]-6,6-dimethyl-bicyclo[3.1.1]hept-2-en-2-yl}-methanol]
GABA contents Globus pallidus [2]: 90.1 ± 13.4 %
GABA contents Substantia nigra [2]: 93.8 ± 7.7%
malonate-induced GABA loss in the striatum (caudate-putamen) [2]: reduced malonate-induced GABA loss
GABA contents in the lesioned side ([2]; striatum, lesioned side, malonate + HU-308 5 mg/kg i.p.): 1.12±0.08 μg/mg of protein
GABA contents in the non-lesioned side ([2]; striatum, non-lesioned side, malonate + HU-308 5 mg/kg i.p.): 1.96±0.11 μg/mg of protein
DA contents Caudate-putamen [3]: 34.1 ± 5.2 %
DOPAC contents Caudate-putamen [3]: 53.9 ± 5.7 %
mRNA levels for neuronal-specific enolase in the caudate-putamen [4]: partially prevented the malonate-induced reduction
mRNA levels for SOD-1 in the caudate-putamen ([5]; FIG. 5A): unable to prevent the malonate-induced decrease
mRNA levels for SOD-2 in the caudate-putamen ([5]; FIG. 5B): unable to prevent the malonate-induced decrease
IC50 (human CB1 receptors): 3.6 µM
cell death in the substantia nigra [6]: reduces the extent of cell death in the substantia nigra

CCCCC/C=C\C/C=C\C/C=C\C/C=C\CCCC(=O)NCCCl [ACEA, arachidonyl-2-chloroethylamide]
GABA contents Globus pallidus [2]: 61.1 ± 12.2 %
GABA contents Substantia nigra [2]: 92.1 ± 5.2%
neurochemical deficits induced by malonate in the caudate-putamen and other basal ganglia structures [2]: did not influence neurochemical deficits
DA contents Caudate-putamen [3]: 23.8 ± 5.4 %
DOPAC contents Caudate-putamen [3]: 44.9 ± 9.7 %

SR144528
effect of co-administration on the HU-308 reduction of malonate-induced GABA depletion in the caudate-putamen ([2]; FIG. 3, SR144528 1 mg/kg i.p. with HU-308 5 mg/kg i.p.): completely reversed

C=C(C)[C@@H]1CCC(C)=C[C@H]1c1c(O)cc(CCCCC)cc1O [CBD, cannabidiol]
GABA contents Globus pallidus [2]: 54.4 ± 8.2 %
GABA contents Substantia nigra [2]: 86.3 ± 8.6%
malonate-induced GABA loss in the striatum (caudate-putamen) [2]: slightly reduce the GABA depletion
neurochemical deficits induced by malonate in the caudate-putamen and other basal ganglia structures [2]: lack of neuroprotectant effects
DA contents Caudate-putamen [3]: 12.6 ± 4.9 %
mRNA levels for neuronal-specific enolase in the caudate-putamen [4]: totally inactive

CCCCCc1cc(O)c2c(c1)OC(C)(C)[C@@H]1CCC(C)=C[C@@H]21 [Δ^9-THC, Δ^9-tetrahydrocannabinol]
effect on malonate toxicity [1]: pro-toxic
neuroprotection in 3-nitropropionic acid rats [7]: neuroprotectant
